This is an account of results in paper PMC9926489, “Chemical Optimization of Selective Pseudomonas aeruginosa LasB Elastase Inhibitors and Their Impact on LasB-Mediated Activation of IL-1β in Cellular and Animal Infection Models” (ACS Infectious Diseases, 2023).

Series [1] deals with T1, LasB Q102R, S241G, D244N, K282N, R471S (Pseudomonas aeruginosa, UniProt P14756, D244N/K282N/R471S/S241G).
T1 construct: Most changes were identified in the mature peptide, however some occurred in the propeptide domain; endogenous in cells; host or cells: P. aeruginosa clinical CF isolate, culture supernatant
Briefly: LasB variant inhibition, culture supernatant: five substitutions. In kind it is biochemical, P. aeruginosa. The source says:
Compounds 12 and 16 were discovered as a result of optimizing potency against the LasB protein expressed from the wild-type (WT) reference strain P. aeruginosa PAO1. To understand the relative prevalence of the WT LasB protein versus other variants in clinical respiratory P. aeruginosa strains, the full-length lasB gene was amplified by PCR from 255 clinical isolates (obtained from CF sputum samples). […] Most changes were identified in the mature peptide, however some occurred in the propeptide domain, which could affect LasB processing (marked in italics in Table 4).
LasB inhibition assays were performed using purified LasB enzyme (1 ng/well) for compound screening or using culture supernatants (prepared as described in the ECR assay) for testing LasB variants. Hydrolysis of the fluorogenic peptide substrate 2-aminobenzoyl-Ala-Gly-Leu-Ala-4-nitrobenzylamide (Abz-AGLA-Nba; Peptide International) in 50 mM Tris-HCl (pH 7.4), supplemented with 2.5 mM CaCl2 was followed using an Envision microplate reader (PerkinElmer) at 315 nm excitation and 430 nm emission. […] IC50 values were determined from Hill plots using Dotmatics Studies ELN software. For the mechanism of inhibition studies, hydrolysis rates were measured in the presence of variable concentrations of substrate and inhibitor, and the inhibition constant (Ki) was determined using Dixon plot analysis.[31]

Series [2] is described as follows: Mouse pharmacokinetics, lung epithelial lining fluid (ELF). In kind it is in vivo. Conditions: for ELF concentration (C0) relative to LasB Ki: 10 mg/kg IV; for Kp / C0 / AUC(0-t) / clearance / half-life: female, ICR (CD-1); for Kp: lung epithelial lining fluid (ELF) and plasma, iv, read-out: lung penetration (AUClast ELF/AUClast plasma); for Kp / lung penetration (AUClast plasma/AUClast ELF): 10 mg/kg; for Kp / C0 / AUC(0-t) / clearance / half-life / lung penetration (AUClast plasma/AUClast ELF): single 10 mg/kg IV dose; for C0 / AUC(0-t) / clearance / half-life: lung epithelial lining fluid (ELF), epithelial lining fluid; for AUC(0-t): read-out: ELF AUClast; for clearance: read-out: ELF CL; for half-life: read-out: ELF t1/2 (converted). The method, then:
The PK parameters of compounds 12 and 16 were investigated in both plasma and lung epithelial lining fluid (ELF) after intravenous (IV) administration of compounds at 10 mg/kg in mice (Figure 4 and Table 5). […] Accordingly, these levels of lung penetration (9.5 and 5.2%, respectively) warranted the evaluation of the compounds in an animal model of lung infection using IV dosing.
Unrestrained, nonanesthetized mice (Female ICR (CD-1); Age 5–6 weeks; Size 22 ± 2 g; specific pathogen-free (SPF)) were injected IV with test article formulations via the tail vein. Animals were sacrificed by cardiac puncture under CO2 euthanasia at 0.08, 0.25, 1, 2, 4, 8, and 24 h post dosing. Blood was drawn into tubes coated with EDTA-K3, mixed gently and plasma was then harvested and kept frozen at −70 °C until further processing. To collect […] (BALF), 0.5 mL of PBS was administered once through a tracheal cannula after which about 0.2 to 0.3 mL of BALF was obtained. The BALF was kept on ice and centrifuged within 1 h of collection and the supernatant was harvested and kept frozen at −70 °C. Plasma and BALF samples were analyzed by LC-MS/MS (AB SCIEX API 3000 mass spectrometer). The apparent ELF volume of each BALF sample was estimated using urea as an endogenous marker of the ELF dilution. The urea concentrations in BALF and plasma samples were determined with the QuantiChrom Urea Assay Kit (DIUR-100) (BioAssay Systems) following the manufacturer’s protocol. For each BALF sample, the drug concentration in ELF was calculated as follows: drug concentrationELF = drug concentrationBALF × (urea concentrationplasma/urea concentrationBALF). The PK parameters of each compound after IV dosing (t1/2, C0, AUClast, and CL) were obtained from the noncompartmental analysis (NCA) of the plasma data using WinNonlin.

A further series relates to P. aeruginosa PAO1. As to the kind of experiment: Mouse P. aeruginosa lung infection model, bacterial numbers (CFUs) in lung homogenates. Conditions: C57Bl/6 mice, 24 h. In kind it is in vivo. The method, then: To investigate if compounds 12 and 16 were able to engage the LasB target in vivo, in the context of a P. aeruginosa lung infection, and to determine the consequences of that inhibition, immunocompetent C57Bl/6 mice were infected intranasally with P. aeruginosa PAO1 and treated with two doses of inhibitors, 10 and 30 mg/kg, administered IV at 1 and 4 h post-infection (Figure 5A). A control group of PAO1-infected animals treated with vehicle and a group of animals infected with the isogenic ΔlasB strain were included in the study. Mice were euthanized 24 h post-infection and their lung homogenates assayed for activated mature IL-1β (using the IL-1 reporter assay) and bacterial numbers (by CFU enumeration).
Infection experiments were approved by the Institutional Animal Care and Use Committee of Emory University. To prepare the bacterial inoculum, P. aeruginosa PAO1 (or its ΔlasB derivative) was grown in Luria broth with shaking at physiologic (37 °C) temperature for 18 h to maximally express LasB (at late log phase). Bacteria were then harvested, washed, and diluted in sterile phosphate-buffered saline (PBS) for delivery of 10^9 colony-forming units (CFUs) in 40 μL. For infection, female C57Bl/6 mice (five/group) were sedated using isofluorane and the bacterial suspension was slowly administered via micropipette between the nostrils and the animals were allowed to aspirate the inoculum via the normal breathing process. Compounds 12 and 16 were administered in PBS via injection (100 μL volume) to achieve doses of 10 and 30 mg/kg. The mice were euthanized 24 h post-infection and the lungs were excised. Active IL-1β was quantified by adding 100 μL of cell-free homogenate to IL-1β responsive HEK IL-1R-lux reporter cells. Activity was assayed by luminescence measured with D-luciferin substrate (Steady-Luc, Biotium) on a multimode reader (PerkinElmer) and expressed as relative luminescence units (RU). CFU was enumerated by dilution plating on Luria agar. Statistics were calculated by ANOVA with a Dunnett post-test.

Where [3] appears, read: 30 mg/kg IV at 1 and 4 h post-infection.

T1 sequence (P14756 198-498, looked up, stated change not applied): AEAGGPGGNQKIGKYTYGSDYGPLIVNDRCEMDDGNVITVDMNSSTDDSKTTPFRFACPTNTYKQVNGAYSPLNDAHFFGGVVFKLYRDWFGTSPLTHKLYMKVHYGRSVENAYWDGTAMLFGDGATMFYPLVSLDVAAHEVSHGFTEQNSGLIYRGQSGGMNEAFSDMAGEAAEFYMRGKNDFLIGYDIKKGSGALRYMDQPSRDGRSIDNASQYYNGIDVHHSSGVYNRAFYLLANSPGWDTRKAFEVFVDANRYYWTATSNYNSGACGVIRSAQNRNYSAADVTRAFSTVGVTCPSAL

The IC50 is the concentration that gives 50% inhibition. As for `COc1cc2sc(CNC(=O)C3(CC(=O)O)Cc4cc(F)c(F)cc4C3)nc2cc1OCCC[N+](C)(CCO)CCO` [Compound 16], half-maximal inhibition in series [1] (IC50) was put at 178 nM. Further, in series [2], the “ELF concentration (C0) relative to LasB Ki” value is recorded as “over 100 fold”, the Kp is 0.052, the C0 was 2700 ng/mL and the AUC(0-t) came out at 27000 ng·h/mL. In series [2], the clearance turned out to be 5.2 mL/min/kg, the half-life is 9.5 h and the “lung penetration (AUClast plasma/AUClast ELF)” value is 5.22%. In addition, the “log reduction in bacterial numbers (CFUs) in lung” value (“log reduction in bacterial numbers” below) in the series on P. aeruginosa PAO1 (setting [3]) stood at 0.47 log.
For the molecule `COc1cc2sc(CNC(=O)C3(CC(=O)O)Cc4ccccc4C3)nc2cc1OCCC[N+](C)(C)C` [Compound 12], half-maximal inhibition in series [1] (IC50) was put at 183 nM. In series [2], the “ELF concentration (C0) relative to LasB Ki” value was “over 100 fold”, the Kp turned out to be 0.095, the C0 came to 2700 ng/mL and the AUC(0-t) was 57700 ng·h/mL. For the same molecule, in series [2], the clearance is 1.5 mL/min/kg, the half-life was 25.8 h and the “lung penetration (AUClast plasma/AUClast ELF)” value worked out at 9.54%. For the same molecule, the “log reduction in bacterial numbers” value with P. aeruginosa PAO1 (10 mg/kg IV at 1 and 4 h post-infection) amounted to 0.48 log. Also, in the series with P. aeruginosa PAO1 (setting [3]), the “log reduction in bacterial numbers” value worked out at 0.69 log.
